{"source": "patent US9333244B2", "about": "“Composition and lipid formulation of a hyaluronan-degrading enzyme and the use thereof for treatment of benign prostatic hyperplasia” (Halozyme, Inc., priority 2011, dated 2016)", "key": {"[1]": {"tested_on": "prostate stromal cells", "assay": "TUNEL assay, apoptosis of stromal cells", "assay_type": "in vivo, rat", "protocol": "In this example, the ability of PEGPH20 to cause apoptosis of stromal cells was analyzed. In situ detection of cell apoptosis by TUNEL assay was based on a reaction for in situ terminal deoxynucleotidyl-transferase (TdT)-mediated biotinylated UTP nick-end labelling (TUNEL). This was essentially performed by using the FragEL DNA (Cat# QIA39-1EA, Calbiochem, Gibbstown, N.J.) according to the manufacturer's directions. In brief, de-paraffinized tissue sections were treated with proteinase K (0.02 mg/mL, Cat#25530, Invitrogen, Carlsbad, Calif.). The slides were then washed in Tris buffered saline (TBS), and endogenous peroxidase was blocked for 5 min in 3% H2O2 diluted in methanol. After washes in TBS, sections were treated with 1×TdT equilibration buffer at room temperature for 30 min and subsequently incubated with TdT labelling reaction mix ([…]) for 1.5 h at 37° C. The slides were rinsed in TBS and mounted using Fluorein-FragEL mounting media, then sealed with nail polish. The number of TUNEL-positive cells was counted on each section at ×200 under a light microscope.\n(§1) In this study, 25 mg TE was administered […] to each rat on days 1 and 7. 50 μL of 4700 U/mL (0.18 mg/mL) MVL-PH20F40 and 50 μL MVL-Vehicle were administered intraprostatically on day 7. […]"}, "[2]": {"tested_on": "TE-induced rat prostatic hyperplasia", "assay": "Rat model of TE-induced prostatic hyperplasia: prostate weight", "assay_type": "in vivo", "protocol": "In this example, the ability of testosterone enanthate (TE) to induce prostatic hyperplasia in rat prostate was examined. Briefly, twenty-five (25) 8-week old male Sprague-Dawley rats (Harlan, USA) were dosed by intramuscular injection with 25 mg TE (Lot#80G010A, Abraxis Bioscience, Phoenix, Ariz.) per rat, once a week, on days 0, 7, 14 and 21. Five (5) out of 25 rats were sacrificed pre-TE treatment and 5 of the remaining 20 rats were sacrificed weekly. The ventral lobes of the prostates were harvested for analysis. […] Additionally, the increase in rat prostatic weight was linearly related to sustained TE exposure. The half-life of TE in the rat blood was approximately 10.5 days (Anderson R A, J Clin Endocrinol Metab., (1996) 81(3):896-901).\n(§2) In this example, PEGPH20 was administered to TE-induced prostatic hyperplasic rats to evaluate its effect on prostate weight. Testosterone enanthate was administered by intramuscular injection and PEGPH20 (diluted in normal saline) was administered intravenously. Following treatment, the animals were sacrificed and the ventral lobes of the prostates were harvested for analysis. Prostate weight was measured using an electronic scale.\nas §2, with “Testosterone” for “In this example, PEGPH20 was administered to TE-induced prostatic hyperplasic rats to evaluate its effect on prostate weight. Testosterone”\nas §2, with “example, the time-dependence of treatment of rat BPH with” for “example,”, “evaluated by administering PEGPH20 at various time points.” for “administered to TE-induced prostatic hyperplasic rats to evaluate its effect on prostate weight.”\nIn this example, the effect of treatment with PEGPH20 was compared to treatment with finasteride using the rat TE-prostatic hyperplasia model. Testosterone enanthate was administered by intramuscular injection, PEGPH20 (diluted in normal saline) was administered intravenously and finasteride was administered intraperitoneally. On day 21 the animals were sacrificed and the ventral lobes of the prostates were harvested for analysis. Prostate weight was measured using an electronic scale.\nIn this example, the effect of combination therapy with PEGPH20 and finasteride was evaluated. PEGPH20 was administered at a dose of either 0.82 mg/kg (low dose) or 2 mg/kg (high dose). Testosterone enanthate was administered by intramuscular injection, PEGPH20 (diluted in normal saline) was administered intravenously and finasteride was administered intraperitoneally. On day 21 the animals were sacrificed and the ventral lobes of the prostates were harvested for analysis. Prostate weight was measured using an electronic scale.\nPercent (%) inhibition was determined according to the formula: ((Control-treated)/Control)×100. […] The prostatic water content of each group was calculated from the wet weight and the dry weight and found to be the same for all groups (˜80%). Therefore, the change in prostate weight cannot be attributed to decreased tissue water.\nTestosterone enanthate was administered by intramuscular injection, PEGPH20 was administered intravenously or by intra-prostatic injection and DepoGel vehicle or DepoPH20 were administered by intra-prostatic injection. On day 21 the animals were sacrificed and the ventral lobes of the prostates were harvested for analysis. Prostate weight was measured using an electronic scale.\nas §1"}, "[3]": {"conditions": "cited from earlier work"}, "[4]": {"tested_on": "prostatic stroma and stromal HA", "assay": "Prostatic histology: stromal HA (biotinylated HABP) and stromal proliferation (H&E)", "assay_type": "in vivo", "conditions": "rat prostate stroma; substance alone (PEGPH20 0.82 mg/kg iv, day 12; TE 25 mg/rat im days 0 and 8, day 18)", "protocol": "In this example, the effect of PEGPH20 on prostatic stroma and stromal HA of normal and TE-induced prostatic hyperplasia rats was analyzed by prostatic histology, including hematoxylin and eosin staining and IHC staining. Stromal proliferation was determined by visually comparing the size of the stroma. Testosterone enanthate was administered by intramuscular injection and PEGPH20 (diluted in normal saline) and control were administered intravenously. Following treatment, the animals were sacrificed and the ventral lobes of the prostates were harvested for analysis.\nProstate tissues were fixed in 10% neutral buffered formalin in PBS for 24 hours, dehydrated with gradient ethanol, cleared with xylene, and embedded in paraffin. Paraffin block was cut to 5 μm sections. Tissue sections were dewaxed, rehydrated and processed by standard hematoxylin and eosin (H&E) staining. Histochemical localization of HA was carried out using a biotinylated-HABP probe (bHABP, Cat#400763-1A, Associates of Cape Cod, Mass.). Sections were deparaffinized in xylene, 2×5 min, hydrated in 100% ethanol, for 2×3 min, and in 95% ethanol for 1 min, then rinsed in distilled water, incubated at 37° C. for 20 min in a trypsin solution, and rinsed in PBS for 2×2 min. […]"}}}
{"smiles": "CCCCCCC(=O)O[C@H]1CC[C@H]2[C@@H]3CCC4=CC(=O)CC[C@]4(C)[C@H]3CC[C@]12C", "note": "[TE, testosterone enanthate]", "values": [{"measurement": "Apoptotic cells/section Mean ± SD", "setting": "[1]; TE 7 d", "value": "4.6 ± 2.51", "unit": "cells/section"}, {"measurement": "Apoptotic cells/section Mean ± SD", "setting": "[1]; TE 18 d", "value": "1.75 ± 1.71", "unit": "cells/section"}, {"measurement": "increase in prostate size", "setting": "[2]; 25 mg TE per rat im once a week for a month", "value": "~3", "unit": "fold"}, {"measurement": "Prostatic Weight (g) Mean ± SD", "setting": "[2]; TE 25 mg/rat days 0, 7, 14, sacrificed day 21", "value": "1.54 ± 0.07", "unit": "g"}, {"measurement": "Prostatic Weight Mean ± SD", "setting": "[2]; TE 3 wks (25 mg/rat days 0, 7, 14), day 21", "value": "1.64 ± 0.12", "unit": "g"}, {"measurement": "increase in prostate weight post TE exposure", "setting": "[2]; day 7, TE 25 mg/rat im", "value": 18.9, "unit": "%"}, {"measurement": "increase in prostate weight post TE exposure", "setting": "[2]; day 18, TE 25 mg/rat im days 0, 7 and 14", "value": 85.7, "unit": "%"}, {"measurement": "Prostatic Weight (g) Mean ± SD", "setting": "[2]; group 1: 3 wk TE (25 mg/rat days 0, 7, 14), day 21", "value": "1.33 ± 0.23", "unit": "g"}, {"measurement": "Prostatic Weight (g) Mean ± SD", "setting": "[2]; group 1: TE 25 mg/rat days 0, 7, sacrificed day 28", "value": "1.49 ± 0.47", "unit": "g"}, {"measurement": "Prostatic Weight (g) Mean ± SD", "setting": "[2]; group 2: TE 25 mg/rat days 0, 7, 14, 21, sacrificed day 28", "value": "1.76 ± 0.18", "unit": "g"}, {"measurement": "Prostatic Weight (g) Mean ± SD", "setting": "[2]; group 3: TE 25 mg/rat days 0, 7, sacrificed day 21", "value": "1.57 ± 0.09", "unit": "g"}, {"measurement": "half-life of TE in the rat blood", "setting": "[3]", "value": "approximately 10.5 days"}, {"measurement": "Effect on HA", "setting": "[4]", "value": "Increased"}, {"measurement": "Effect on Stroma", "setting": "[4]", "value": "Increased proliferation"}]}
{"smiles": "CC(C)(C)NC(=O)[C@H]1CC[C@H]2[C@@H]3CC[C@H]4NC(=O)C=C[C@]4(C)[C@H]3CC[C@]12C", "note": "[finasteride, (5α,17β)-N -(1,1-dimethethylethy)-3-oxo-4-azaandrost-1-ene-17-carboxamide]", "values": [{"measurement": "inhibition of prostate growth", "setting": "[2]; TE days 0, 7, PEGPH20 0.82 mg/kg iv QOD days 7-20 or finasteride 25 mg/kg ip daily days 7-20, day 21, vs TE alone P<0.01", "value": "approximately 37%"}, {"measurement": "reduction in prostate size relative to vehicle control", "setting": "[2]; TE days 1 and 7, finasteride 2.5 mg/kg ip daily starting on day 7", "value": 18.7, "unit": "%"}, {"measurement": "% Inhibit", "setting": "[2]; group 4: 3 wk TE, finasteride (25 mg/kg ip daily, 2 wk)", "value": 25.2, "unit": "%"}, {"measurement": "Prostatic Weight (g) Mean ± SD", "setting": "[2]; group 4: 3 wk TE, finasteride (25 mg/kg ip daily, 2 wk), day 21, P 0.007", "value": "1.00 ± 0.19", "unit": "g"}]}
